# According to article PMC9851200, “Multiparameter phenotypic screening for endogenous TFEB and TFE3 translocation identifies novel chemical series modulating lysosome function” (Autophagy, 2022):
# Entries after “also recorded” stand apart in the source; their conditions may differ. Like-named read-outs stand apart in the source and are kept apart here.
# Legend:
# endogenous TFEB = test: TFEB nuclear translocation, immunocytochemistry high-content imaging; type: cell-based
# endogenous TFE3 = test: TFE3 nuclear translocation, immunocytochemistry high-content imaging; type: cell-based; details: for Best-Fit Values Span: TFE3 assay concentration response; for Best-Fit Values Span / EC50: 24 h; for EC50: TFE3 assay, read-out: Best-Fit Values EC50 (converted); for Summary: activity in TFE3 assays compared with original NK-140, OT activity
# SH-SY5Y cells [1] = system: SH-SY5Y cells
# Excerpt: The PKIS2 Library was supplied by The Structural Genomics Consortium at the University of North Carolina at Chapel Hill.
# SH-SY5Y cells [2] = test: AK (adenylate kinase) release ToxiLight cytotoxicity assay; details: for Cellular toxicity (AK release and nuclear count, in words): SH-SY5Y, 24 h treatment
# Description: Total cell lysis with 5 µL 5% Triton-X 100 (Sigma-Aldrich, T8787) is used as a positive control for the assay and toxicity is expressed as a percentage of luminescence under DMSO conditions.
# SH-SY5Y cells [3] = test: Nuclear count from microscopy images (cellular growth and toxicity)
# [4] = PKIS2 primary screening, DQ Red BSA intensity
# [5] = PKIS2 primary screening, DQ Red BSA spot count
# [6] = SH-SY5Y, concentration-dependent
SMILES,TFEB % (endogenous TFEB; PKIS2 primary screening),TFE3 % (endogenous TFE3; PKIS2 primary screening),AK (SH-SY5Y cells [2]; PKIS2 primary screening),Nuclear Count (SH-SY5Y cells [3]; PKIS2 primary screening),DQ Intensity (SH-SY5Y cells [1]; PKIS2 primary screening),DQ Spot (SH-SY5Y cells [1]; PKIS2 primary screening),also measured
Cc1n[nH]c2cc(Nc3ccnc(Nc4cccc(CN5CCOCC5)c4)n3)ccc12 [GW682569],6.60%,9.15%,83.50,85.02,–,–,DQ Intensity (SH-SY5Y cells [1]; [4]): 93.91; DQ Spot (SH-SY5Y cells [1]; [5]): 112.57
NS(=O)(=O)c1cccc(-c2ccc3ncc(N4CCOCC4)nc3c2)c1 [UNC10225400A],4.14%,6.51%,95.42,118.72,–,–,DQ Intensity (SH-SY5Y cells [1]; [4]): 83.02; DQ Spot (SH-SY5Y cells [1]; [5]): 88.90
Cn1cc(-c2ccc3c(c2)CCN3C(=O)Cc2cccc(C(F)(F)F)c2)c2c(N)ncnc21 [UNC10225165A],6.03%,14.20%,93.68,103.31,124.78,91.55,–
Cn1cc(-c2ccc3c(c2)CCN3C(=O)Cc2cccc(Cl)c2)c2c(N)ncnc21 [UNC10225039A],7.96%,17.54%,96.09,137.18,87.65,95.36,–
Cc1cc(-c2c(-c3ccc(F)cc3)ncn2CCCN2CCOCC2)nc(N)n1 [UNC10225357A],6.16%,18.76%,146.53,103.52,102.69,106.97,–
CSc1nn2c(=O)cc(N3CCOCC3)nc2n1Cc1cccc(C(F)(F)F)c1C [UNC10225417A],3.46%,6.63%,90.24,112.74,90.90,96.76,–
CCn1c(-c2ccncc2)nc2cnccc21 [UNC10225204A],11.18%,12.32%,74.70,104.87,98.92,103.23,–
Cc1c(Cn2c(C)nn3c(=O)cc(N4CCOC(C)C4)nc23)cccc1C(F)(F)F (stereo not drawn) [UNC10225005A],–,–,–,–,–,–,"TFEB % (endogenous TFEB; PKIS2 primary screen): 4.71%; TFE3 % (endogenous TFE3; PKIS2 primary screen): 10.85%; DQ Intensity (SH-SY5Y cells [1]; PKIS2 primary screen, DQ Red BSA intensity): 85.13; DQ Spot (SH-SY5Y cells [1]; PKIS2 primary screen, DQ Red BSA spot count): 83.90; AK (SH-SY5Y cells [2]; PKIS2 primary screen): 90.28; Nuclear Count (SH-SY5Y cells [3]; PKIS2 primary screen): 125.80"
Cc1occc1-c1ncc(OC[C@@H](N)Cc2c[nH]c3ccccc23)cc1-c1ccc2[nH]nc(C)c2c1.O=C(O)C(F)(F)F [UNC10243880A],19.77%,39.74%,148.86,69.84,77.42,58.66,–
NCCCC(NC(=O)c1cc(Br)c(-c2ccnc3[nH]ccc23)s1)c1ccccc1.O=C(O)C(F)(F)F.O=C(O)C(F)(F)F (stereo not drawn) [UNC10225265A],4.66%,12.13%,80.18,128.28,–,–,DQ Intensity (SH-SY5Y cells [1]; [4]): 112.08; DQ Spot (SH-SY5Y cells [1]; [5]): 100.65
COc1ccc(Nc2nccc(N3CCC(NC(=O)c4cccc(C#N)c4)C3)n2)cc1 (stereo not drawn) [GSK1379730],9.20%,13.54%,125.87,108.33,–,–,DQ Intensity (SH-SY5Y cells [1]; [4]): 67.56; DQ Spot (SH-SY5Y cells [1]; [5]): 85.55
"CC(=O)Nc1ccc(C(=O)Nc2ccccc2N)cc1 [CI-994, Tacedinaline, reference compound]",–,–,–,–,–,–,"DQ Red BSA signal (in words) (SH-SY5Y cells [1]; SH-SY5Y, 24 h treatment): robustly increase DQ Red BSA puncta signal; DQ Red BSA spot count / active lysosome count (in words) (SH-SY5Y cells [1]; SH-SY5Y, 24 h treatment): increases"
Cc1cccc(-c2nc(Nc3ccc4ncn(C)c4c3)c3ccccc3n2)n1 [NK173],–,–,–,–,–,–,"Best-Fit Values Span (endogenous TFE3; SH-SY5Y): 80.89; EC50 (endogenous TFE3; SH-SY5Y, second EC50 of biphasic/bell-shaped fit or OT (off-target) activity, unit inferred): 1.92 µM; Summary (endogenous TFE3): Only OT activity"
C[C@@H](Oc1cc(-n2cnc3cc(-c4cnn(C)c4)ccc32)sc1C(N)=O)c1ccccc1Cl [UNC10225416A],18.53%,8.07%,104.83,–,–,–,DQ Intensity (SH-SY5Y cells [1]): 219.18; DQ Spot (SH-SY5Y cells [1]): 124.35
"O=C1NCCCc2c1oc1ccc(O)cc21 [CID755673, reference compound]",–,–,–,–,–,–,"TFEB translocation (in words) (endogenous TFEB): no TFEB and TFE3 translocation; also recorded: no effect across these assays; TFE3 translocation (in words) (endogenous TFE3): no TFEB and TFE3 translocation; also recorded: no effect across these assays; DQ Red BSA signal (in words) (SH-SY5Y cells [1]): no TFEB and TFE3 translocation, alteration in DQ Red BSA signal or toxicity; also recorded: no effect across these assays; Cellular toxicity (AK release and nuclear count, in words) (SH-SY5Y cells [2]): no TFEB and TFE3 translocation, alteration in DQ Red BSA signal or toxicity; also recorded: no effect across these assays"
CC(C)c1nc(-c2cccc(NS(=O)(=O)c3ccccc3)c2)c(-c2ccnc(Nc3ccc4c(c3)CN(C)CC4)n2)s1 [UNC10225068A],–,63.29%,114.97,76.87,3.98,39.66,–
"O=C(Nc1ccc(CN2CCOCC2)cc1)c1ccc(-c2cccc(Cl)c2)o1 [CID2011756, reference compound]",–,–,–,–,–,–,"TFEB translocation (in words) (endogenous TFEB): some TFEB and TFE3 translocation only at 20 µM; also recorded: induced TFEB and TFE3 translocation only alongside marked lysosomal and cellular toxicity at 20 µM; TFE3 translocation (in words) (endogenous TFE3): some TFEB and TFE3 translocation only at 20 µM; also recorded: induced TFEB and TFE3 translocation only alongside marked lysosomal and cellular toxicity at 20 µM; DQ Red BSA signal (in words) (SH-SY5Y cells [1]): some reduction of DQ Red BSA signal; Lysosomal toxicity (in words) (SH-SY5Y cells [1]; human): marked lysosomal and cellular toxicity at 20 µM; Cellular toxicity (AK release and nuclear count, in words) (SH-SY5Y cells [2]): marked lysosomal and cellular toxicity at 20 µM"
"CCN(CC)CCCC(C)Nc1ccnc2cc(Cl)ccc12 (stereo not drawn) [chloroquine, reference compound]",–,–,–,–,–,–,"TFEB translocation from the cytoplasm to the nucleus (% nTFEB) (endogenous TFEB; [6]): > 80%; TFE3 translocation from the cytoplasm to the nucleus (% nTFE3) (endogenous TFE3; [6]): > 80%; DQ Red BSA signal (in words) (SH-SY5Y cells [1]; SH-SY5Y, 24 h treatment): greatly reduced; DQ Red BSA spot count / active lysosome count (in words) (SH-SY5Y cells [1]; SH-SY5Y, 24 h treatment): reduces"
Cc1cccc(-c2nc(Nc3ccc4[nH]ccc4c3)c3ccccc3n2)n1 [NK218],–,–,–,–,–,–,"Best-Fit Values Span (endogenous TFE3; SH-SY5Y): 20.78; EC50 (endogenous TFE3; SH-SY5Y, µM): 0.42 µM; Summary (endogenous TFE3): More Potent"
Cc1cnc(N)c(/C=C/c2cncc(C(=O)NCCc3ccc(Cl)cc3Cl)c2)c1.Cl [UNC10225238A],–,–,–,–,–,–,DQ Intensity (SH-SY5Y cells [1]; [4]): 95.52; DQ Spot (SH-SY5Y cells [1]; [5]): 99.30
